The target of this assay is LRRK2(G2019S mutation, GST-LRRK2(amino acids 970-2527)) (Homo sapiens (Human), UniProt Q5S007, G2019S). The experiment in a line: LRRK2 Km ATP LanthaScreen Assay. In kind it is biochemical. The settings on record: Km ATP (184 μM ATP solution), G2019S LRRK2, mean IC50. The procedure: Unless otherwise noted, all LRRK2 IC50 data presented in tables refers to the LRRK2 Km ATP LanthaScreen™ Assay that is described in the Biological Assay section.
Sequence of LRRK2(G2019S mutation, GST-LRRK2(amino acids 970-2527)) (Q5S007 970-2527 G2019S): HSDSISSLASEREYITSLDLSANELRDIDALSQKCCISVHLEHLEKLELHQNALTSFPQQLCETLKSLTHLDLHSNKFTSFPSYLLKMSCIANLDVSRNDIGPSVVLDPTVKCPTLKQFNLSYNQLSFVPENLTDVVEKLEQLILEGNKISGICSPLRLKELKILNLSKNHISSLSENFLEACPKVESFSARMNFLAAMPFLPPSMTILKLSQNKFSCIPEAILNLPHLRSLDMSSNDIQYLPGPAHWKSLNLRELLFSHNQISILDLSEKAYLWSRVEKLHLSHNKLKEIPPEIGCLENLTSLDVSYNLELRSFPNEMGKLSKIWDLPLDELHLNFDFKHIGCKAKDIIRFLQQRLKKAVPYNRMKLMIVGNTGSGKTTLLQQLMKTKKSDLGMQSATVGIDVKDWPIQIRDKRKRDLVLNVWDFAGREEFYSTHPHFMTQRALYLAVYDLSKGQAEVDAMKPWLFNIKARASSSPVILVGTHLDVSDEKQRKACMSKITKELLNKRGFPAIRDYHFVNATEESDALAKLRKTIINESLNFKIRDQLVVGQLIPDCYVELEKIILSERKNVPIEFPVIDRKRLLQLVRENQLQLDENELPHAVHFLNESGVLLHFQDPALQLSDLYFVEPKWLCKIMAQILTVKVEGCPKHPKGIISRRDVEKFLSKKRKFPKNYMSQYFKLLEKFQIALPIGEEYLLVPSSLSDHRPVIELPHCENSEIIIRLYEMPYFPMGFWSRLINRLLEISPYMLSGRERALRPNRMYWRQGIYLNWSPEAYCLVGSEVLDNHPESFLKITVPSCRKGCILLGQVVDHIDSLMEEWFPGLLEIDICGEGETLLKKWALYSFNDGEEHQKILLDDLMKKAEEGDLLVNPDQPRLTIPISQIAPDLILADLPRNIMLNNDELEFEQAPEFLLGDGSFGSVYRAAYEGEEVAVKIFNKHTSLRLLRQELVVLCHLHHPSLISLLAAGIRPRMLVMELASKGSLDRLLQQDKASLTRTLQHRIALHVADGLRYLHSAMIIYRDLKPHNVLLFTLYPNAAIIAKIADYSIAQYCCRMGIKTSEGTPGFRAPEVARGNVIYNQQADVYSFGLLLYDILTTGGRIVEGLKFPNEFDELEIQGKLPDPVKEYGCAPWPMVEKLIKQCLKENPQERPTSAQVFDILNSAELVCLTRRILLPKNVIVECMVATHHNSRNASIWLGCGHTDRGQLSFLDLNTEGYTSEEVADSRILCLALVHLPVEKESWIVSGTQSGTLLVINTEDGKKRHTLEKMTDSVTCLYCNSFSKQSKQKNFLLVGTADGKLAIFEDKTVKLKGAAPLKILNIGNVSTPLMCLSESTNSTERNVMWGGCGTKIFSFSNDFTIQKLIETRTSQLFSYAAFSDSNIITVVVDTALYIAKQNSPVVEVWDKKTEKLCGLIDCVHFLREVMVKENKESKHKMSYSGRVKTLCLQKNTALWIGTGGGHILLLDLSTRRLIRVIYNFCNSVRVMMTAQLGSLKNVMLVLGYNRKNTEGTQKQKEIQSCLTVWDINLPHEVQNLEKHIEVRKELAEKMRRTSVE
The data presented for the 5 mM and Km ATP LanthaScreen™ Assay represents mean IC50 values based on several test results and may have reasonable. deviations depending on the specific conditions and reagents used. Reagents for the LRRK2 5 mM and Km ATP LanthaScreen™ Assay were purchased from Life Technologies Corporation.
LRRK2 Km ATP LanthaScreen™ Assay
a) 400 nl of a 1:2.15 serial dilution of test compound(98 μM top assay concentration) is spotted via Labcyte Echo to certain wells in a 384 well black, untreated plate. Control wells contain 400 nl of either DMSO or 400 nl of a known inhibitor in DMSO.
b) 10 μl of a 2.5 nM LRRK2(G2019S mutation, GST-LRRK2(amino acids 970-2527)) enzyme solution in 1× assay buffer(50 mM Tris pH 8.5, 10 mM MgCl2, 0.01% Brij-35, 1 mM EGTA, 2 mM DTT, 0.05 mM NaVO4) is added to all wells.
c) A 30 minute room temperature incubation is followed by addition of 10 μl of 800 nM fluorescein labeled LRRKtide peptide substrate and 184 μM ATP solution in 1× assay buffer to all wells.
d) After a 60 minute room temperature incubation, 20 μl of TR-FRET Dilution Buffer(Invitrogen PV3756B) containing 4 nM Tb-labeled anti-phospho LRRKtide antibody and 20 mM EDTA is added to all wells.
e) Plates are incubated at room temperature for 1 hour and read on an Envision™ multi-mode plate reader with LanthaScreen™ settings. Results are analysed using Assay Data Analyzer.
On the technique in general: In TR-FRET formats the signal depends on donor and acceptor labels being close together.
For orientation: IC50 means the point on the concentration scale where inhibition reaches its midpoint. Read a low IC50 as greater potency. Take `CC(C)Oc1cc2c(-c3cc(N4CCN(CCO)CC4)ncn3)n[nH]c2cc1F` [Example D62]: the IC50 amounted to 1.65 nM. `CC(C)Oc1cc2c(-c3cc(N4CCN(S(=O)(=O)C5CC5)CC4)ncn3)n[nH]c2cc1F` [Example D63] yielded an IC50 of 4.17 nM.

In turn, `CCC(=O)N1CCN(c2cc(-c3n[nH]c4cc(F)c(OC(C)C)cc34)ncn2)CC1` [Example D64] displayed an IC50 of 4.32 nM.

In the case of `CC(C)Oc1cc2c(-c3cc(N4CCN(C(=O)C5CC5)CC4)ncn3)n[nH]c2cc1F` [Example D65], the IC50 was determined as 2.98 nM. The same measure for `CCCN1CCN(c2cc(-c3n[nH]c4cc(F)c(OC(C)C)cc34)ncn2)CC1=O` [Example D66]: 2.77 nM; for `COCCOC1CCN(c2cc(-c3n[nH]c4cc(F)c(OC(C)C)cc34)ncn2)CC1` [Example D67]: 2.1 nM; for `CCS(=O)(=O)N1CCN(c2cc(-c3n[nH]c4cc(F)c(OC(C)C)cc34)ncn2)CC1` [Example D68]: 2.24 nM. In turn, `CC(C)Oc1cc2c(-c3cc(N4CCN(C(C)C)C(=O)C4)ncn3)n[nH]c2cc1F` [Example D69] showed an IC50 of 3.09 nM. `CC(C)Oc1cc2c(-c3cc(N4CCN(C)C(=O)C4)ncn3)n[nH]c2cc1F` [Example D70]: half-maximal inhibition (IC50) was put at 2.19 nM. For `COCCN1CCN(c2cc(-c3n[nH]c4cc(F)c(OC(C)C)cc34)ncn2)CC1=O` [Example D71] the value was 1.63 nM; for `CC(C)Oc1cc2c(-c3cc(N4C[C@@H](C)N(C)[C@@H](C)C4)ncn3)n[nH]c2cc1F` [Example D72], 1.33 nM. The same measure for `COc1ccc2[nH]nc(-c3cc(N4C[C@H](F)[C@@H](F)C4)ncn3)c2c1` [Example E2]: 68.6 nM. The same measure for `COc1ccc2[nH]nc(-c3cc(N4C[C@@H](C)O[C@@H](C)C4)ncn3)c2c1` [Example E3]: 29.3 nM; for `COc1ccc2[nH]nc(-c3cc(N4CCN(S(C)(=O)=O)CC4)ncn3)c2c1` [Example E4]: 35.4 nM; for `COc1ccc2[nH]nc(-c3cc(N4CCN(C(C)=O)CC4)ncn3)c2c1` [Example E5]: 74.5 nM. `COc1ccc2[nH]nc(-c3cc(N4CC5CCC(C4)O5)ncn3)c2c1` [Example E6]: the 50% inhibitory concentration (IC50) was 148 nM. For `COc1ccc2[nH]nc(-c3cc(N4CCN(C)CC4)ncn3)c2c1` [Example E7] the value was 28.2 nM; for `CCN1CCN(c2cc(-c3n[nH]c4ccc(OC)cc34)ncn2)CC1` [Example E8], 24.3 nM.

For `COc1ccc2[nH]nc(-c3cc(N4CCN(C5CC5)CC4)ncn3)c2c1` [Example E9], the IC50 is 25.9 nM. Turning to `COc1ccc2[nH]nc(-c3cc(N4CCNC(=O)C4)ncn3)c2c1` [Example E10], the half-maximal inhibitory concentration (IC50) came to 101 nM. In turn, `CCN1CCN(c2cc(-c3n[nH]c4ccc(OC)cc34)ncn2)CC1=O` [Example E11] returned an IC50 of 78.3 nM. For `COc1ccc2[nH]nc(-c3cc(N4CCO[C@H](C)C4)ncn3)c2c1` [Example E12] the value was 28.5 nM; for `COc1ccc2[nH]nc(-c3cc(N4CCO[C@@H](C)C4)ncn3)c2c1` [Example E13], 76.9 nM. For `CCOc1ccc2[nH]nc(-c3cc(N4CCN(S(C)(=O)=O)CC4)ncn3)c2c1` [Example F1] the value was 15.4 nM; for `CCOc1ccc2[nH]nc(-c3cc(N4C[C@@H](C)O[C@@H](C)C4)ncn3)c2c1` [Example F2], 12.8 nM; for `CCOc1ccc2[nH]nc(-c3cc(N4C[C@H](F)[C@@H](F)C4)ncn3)c2c1` [Example F3], 26.6 nM. For `CCOc1ccc2[nH]nc(-c3cc(N4CCN(C)CC4)ncn3)c2c1` [Example F4] the value was 26.9 nM. For the compound `CCOc1ccc2[nH]nc(-c3cc(N4CCN(C5CC5)CC4)ncn3)c2c1` [Example F5], the IC50 was determined as 16.7 nM. Compound `CCOc1ccc2[nH]nc(-c3cc(N4CCNC(=O)C4)ncn3)c2c1` [Example F6] yielded an IC50 of 63.9 nM. For `CCOc1ccc2[nH]nc(-c3cc(N4CCN(C)C(=O)C4)ncn3)c2c1` [Example F7] the value was 37.1 nM; for `CCOc1ccc2[nH]nc(-c3cc(N4CCN(CC)CC4)ncn3)c2c1` [Example F8], 12.6 nM. For `CCOc1ccc2[nH]nc(-c3cc(N4CCN(CC)C(=O)C4)ncn3)c2c1` [Example F9] the value was 16.7 nM; for `CCOc1ccc2[nH]nc(-c3cc(N4CC5CCC(C4)O5)ncn3)c2c1` [Example F10], 32.7 nM.

`CCOc1ccc2[nH]nc(-c3cc(N4CCN(C(C)=O)CC4)ncn3)c2c1` [Example F11] registered an IC50 of 18 nM. The same measure for `CCOc1ccc2[nH]nc(-c3cc(N4CCO[C@H](C)C4)ncn3)c2c1` [Example F12]: 10.5 nM.

The compound `CCOc1ccc2[nH]nc(-c3cc(N4CCO[C@@H](C)C4)ncn3)c2c1` [Example F13] gave an IC50 of 41.2 nM. For `COCCOc1ccc2[nH]nc(-c3cc(N4CCN(S(C)(=O)=O)CC4)ncn3)c2c1` [Example G1] the value was 64.7 nM. Compound `COCCOc1ccc2[nH]nc(-c3cc(N4C[C@@H](C)O[C@@H](C)C4)ncn3)c2c1` [Example G2] had an IC50 of 76.6 nM. For `COCCOc1ccc2[nH]nc(-c3cc(N4C[C@H](F)[C@@H](F)C4)ncn3)c2c1` [Example G3] the value was 138 nM; for `COCCOc1ccc2[nH]nc(-c3cc(N4CCN(C)CC4)ncn3)c2c1` [Example G4], 67.2 nM; for `COCCOc1ccc2[nH]nc(-c3cc(N4CCN(C5CC5)CC4)ncn3)c2c1` [Example G5], 97 nM.

With `COCCOc1ccc2[nH]nc(-c3cc(N4CCNC(=O)C4)ncn3)c2c1` [Example G6], inhibition was half-maximal at 136 nM (IC50).

Compound `COCCOc1ccc2[nH]nc(-c3cc(N4CCN(C)C(=O)C4)ncn3)c2c1` [Example G7] had an IC50 of 69 nM. The same measure for `CCN1CCN(c2cc(-c3n[nH]c4ccc(OCCOC)cc34)ncn2)CC1` [Example G8]: 97 nM; for `CCN1CCN(c2cc(-c3n[nH]c4ccc(OCCOC)cc34)ncn2)CC1=O` [Example G9]: 107 nM. The same measure for `COCCOc1ccc2[nH]nc(-c3cc(N4CCO[C@H](C)C4)ncn3)c2c1` [Example G10]: 42.8 nM; for `COCCOc1ccc2[nH]nc(-c3cc(N4CCO[C@@H](C)C4)ncn3)c2c1` [Example G11]: 101 nM; for `COCCOc1ccc2[nH]nc(-c3cc(N4CC5CCC(C4)O5)ncn3)c2c1` [Example G12]: 154 nM.

Compound `COCCOc1ccc2[nH]nc(-c3cc(N4CCN(C(C)=O)CC4)ncn3)c2c1` [Example G13] gave a half-maximal inhibitory concentration (IC50) of 128 nM. The same measure for `COC[C@@H](C)Oc1ccc2[nH]nc(-c3cc(N4CCOCC4)ncn3)c2c1` [Example H1]: 56.2 nM; for `COC[C@@H](C)Oc1ccc2[nH]nc(-c3cc(N4C[C@@H](C)O[C@@H](C)C4)ncn3)c2c1` [Example H2]: 39.1 nM. For `COC[C@@H](C)Oc1ccc2[nH]nc(-c3cc(N4CCO[C@H](C)C4)ncn3)c2c1` [Example H3] the value was 35.5 nM.

The compound `COC[C@H](C)Oc1ccc2[nH]nc(-c3cc(N4C[C@@H](C)O[C@@H](C)C4)ncn3)c2c1` [Example H5] had an IC50 of 1.7 nM. For `COC[C@H](C)Oc1ccc2[nH]nc(-c3cc(N4CCN(S(C)(=O)=O)CC4)ncn3)c2c1` [Example H6] the value was 4.5 nM; for `COC[C@H](C)Oc1ccc2[nH]nc(-c3cc(N4CCN(C)CC4)ncn3)c2c1` [Example H7], 2.08 nM.

`COC[C@H](C)Oc1ccc2[nH]nc(-c3cc(N4CC5CCC(C4)O5)ncn3)c2c1` [Example H8]: the IC50 stood at 9.93 nM. For `COC[C@H](C)Oc1ccc2[nH]nc(-c3cc(N4CCC5(CCC(=O)N5)CC4)ncn3)c2c1` [Example H9] the value was 4.36 nM; for `COC[C@H](C)Oc1ccc2[nH]nc(-c3cc(N4CCC5(CC4)CC(=O)N(C)C5)ncn3)c2c1` [Example H10], 2.87 nM; for `COC[C@H](C)Oc1ccc2[nH]nc(-c3cc(N4CCC5(CC4)CNC(=O)C5)ncn3)c2c1` [Example H11], 2.85 nM. The same measure for `COC[C@H](C)Oc1ccc2[nH]nc(-c3cc(N4CC[C@@H](OC)C4)ncn3)c2c1` [Example H12]: 4.8 nM. Take `COC[C@H](C)Oc1ccc2[nH]nc(-c3cc(N4CC[C@H](OC)C4)ncn3)c2c1` [Example H13]: the IC50 turned out to be 5.27 nM. For `COC[C@H](C)Oc1ccc2[nH]nc(-c3cc(N4CCC5(CCCO5)CC4)ncn3)c2c1` [Example H14] the value was 2.02 nM; for `COC[C@H](C)Oc1ccc2[nH]nc(-c3cc(N4CCC5(CCN(C)C5=O)CC4)ncn3)c2c1` [Example H15], 3.71 nM; for `COC[C@H](C)Oc1ccc2[nH]nc(-c3cc(N4CCC5(CCNC5=O)CC4)ncn3)c2c1` [Example H16], 2.83 nM.

On to `COC[C@H](C)Oc1ccc2[nH]nc(-c3cc(N4CCO[C@H](C)C4)ncn3)c2c1` [Example H17], for which the IC50 was 2.79 nM. With `c1cnc(-c2ccc3[nH]nc(-c4cc(N5CCOCC5)ncn4)c3c2)cn1` [Example I1], 34.7 nM corresponded to half-maximal inhibition (IC50).
